Results from US20090062255A1, “TUMOR-TARGETING EVALUATION METHODOLOGY AND COMPOUNDS RELATED THERETO” (THALLION PHARMACEUTICALS INC., priority 2007, published 2009).

Key:
[1] = tested on: Acyl CoA-Cholesterol Acyltransferase (ACAT); experiment: ACAT enzyme assay; assay type: biochemical, rat; settings: 10 μM compound, 1% DMSO
Text: Acyl CoA-Cholesterol Acyltransferase (ACAT) converts cholesterol to cholesteryl esters and is involved in the development of artherioscerosis.
(§1) The procedures used were based on known assays: ACAT (from rat; Ref: Largis et al (1989), J. Lipid. Res., vol 30, 681-689), COX-2 (human; Ref: Riendeau et al (1997), Can. J. Physiol. Pharmacol., vol 75, 1088-1095 and Warner et al (1999), Pro. Natl. Acad. Sci. USA, vol 96, 7563-7568), 5-LO (human; Ref: Carter et al (1991), J. Pharmacol. Exp. Ther., vol 256, no 3, 929-937, and Safayhi et al (2000), Planta Medica, vol 66, 110-113), PBR (from rat; Le Fur et al (1983), Life Sci. USA, vol 33, 449-457), CysLT1 (human; Martin et al (2001), Biochem. Pharmacol., vol 62, no 9, 1193-1200) and CBR (from rat; Damm et al (1978), Res. Comm. Chem. Pathol. Pharmacol., vol 22, 597-600 and Speth et al (1979), Life Sci., vol 24, 351-357).
(§2) Binding assays were done for each of Compounds 1-12 and 46 using ACAT, COX-2, 5-LO, PBR and CysLT1 enzymes. The procedures used are based on the respective references mentioned above and the conditions are summarized in Tables 16 (enzyme assays) and 17 (radioligand receptor assays).
(§3) Binding Assays were done at constant concentration of the compound, in 1% DMSO as vehicle, and are specified below each enzyme/receptor type in Table 18. The results are expressed in Table 18 as percentage inhibition. Significance was obtained when a result was ≧50% binding or inhibition (underlined).

human 5-LO = target: T1, human 5-LO (Homo sapiens, UniProt P09917); experiment: 5-LO inhibition assay (EIA quantitation of LTB4); assay type: biochemical; settings: 4 μM compound, 1% DMSO; read-out: Percentage of inhibition or binding activity, 5-LO (4 μM)
T1 construct: Human peripheral blood […] (PMNs) were isolated through a Ficoll-Paque density gradient; endogenous in cells; host or cells: human peripheral blood mononuclear cells (PBML/PMNs)
T1 sequence (P09917 1-674): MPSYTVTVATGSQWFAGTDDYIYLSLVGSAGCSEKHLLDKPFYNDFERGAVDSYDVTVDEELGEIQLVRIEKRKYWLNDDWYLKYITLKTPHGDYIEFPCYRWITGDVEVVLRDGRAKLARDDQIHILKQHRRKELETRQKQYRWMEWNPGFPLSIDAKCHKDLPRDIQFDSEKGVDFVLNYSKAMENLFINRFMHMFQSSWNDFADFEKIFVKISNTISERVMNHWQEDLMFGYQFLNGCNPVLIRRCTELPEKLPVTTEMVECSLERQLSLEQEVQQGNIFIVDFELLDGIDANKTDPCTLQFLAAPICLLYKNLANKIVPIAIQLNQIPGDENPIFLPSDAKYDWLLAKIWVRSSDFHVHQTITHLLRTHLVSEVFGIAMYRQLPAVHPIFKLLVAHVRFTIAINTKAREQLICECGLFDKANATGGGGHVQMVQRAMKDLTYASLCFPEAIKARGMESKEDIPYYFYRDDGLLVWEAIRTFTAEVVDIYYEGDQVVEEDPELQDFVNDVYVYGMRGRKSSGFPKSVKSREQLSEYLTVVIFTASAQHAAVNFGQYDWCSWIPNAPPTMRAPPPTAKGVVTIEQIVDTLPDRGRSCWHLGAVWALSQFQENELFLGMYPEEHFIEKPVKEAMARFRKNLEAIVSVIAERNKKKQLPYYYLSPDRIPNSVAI
Procedure: 5-Lipoxygenase (5-LO) catalyzes the oxidative metabolism of arachidonic acid to 5-hydroxyeicosatetraenoic acid (5-HETE), the initial reaction leading to formation of leukotrienes.
Human peripheral blood […] (PMNs) were isolated through a Ficoll-Paque density gradient. PMNs were stimulated by addition A23187 (30 μM final concentration). […] Following incubation, samples were neutralized with NaOH and centrifuged. Leukotriene B4 content was measured in the supernatant using an Enzyme Immunosorbant Assay (EIA) assay. The experiment was performed in triplicate.
The procedures used are based on the respective references mentioned above and the conditions are summarized in Tables 16 (enzyme assays) and 17 (radioligand receptor assays).
as §3

Cyclooxygenase-2 (COX-2) = target: T2, Cyclooxygenase-2 (COX-2) (Homo sapiens, UniProt P35354); experiment: COX-2 enzyme assay; assay type: biochemical; settings: 4 μM compound, 1% DMSO; read-out: Percentage of inhibition or binding activity, COX-2 (4 μM)
T2 construct: host or cells: insect Sf21 cells
T2 sequence (P35354 18-604): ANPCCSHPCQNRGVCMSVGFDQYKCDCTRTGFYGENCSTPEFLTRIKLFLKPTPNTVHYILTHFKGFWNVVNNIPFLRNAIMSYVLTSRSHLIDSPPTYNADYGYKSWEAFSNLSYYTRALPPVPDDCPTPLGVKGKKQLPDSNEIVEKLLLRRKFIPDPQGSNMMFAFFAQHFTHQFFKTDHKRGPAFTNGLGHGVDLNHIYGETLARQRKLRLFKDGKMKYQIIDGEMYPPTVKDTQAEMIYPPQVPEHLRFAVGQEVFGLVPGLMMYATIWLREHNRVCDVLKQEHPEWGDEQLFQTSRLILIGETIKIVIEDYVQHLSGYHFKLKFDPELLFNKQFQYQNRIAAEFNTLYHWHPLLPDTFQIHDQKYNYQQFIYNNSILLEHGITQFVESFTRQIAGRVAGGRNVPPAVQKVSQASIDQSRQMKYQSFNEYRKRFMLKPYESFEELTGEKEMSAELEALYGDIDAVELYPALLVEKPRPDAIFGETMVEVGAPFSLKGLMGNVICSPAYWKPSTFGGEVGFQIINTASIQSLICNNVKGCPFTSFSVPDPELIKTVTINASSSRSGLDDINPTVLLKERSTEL
Text: Cyclooxygenase-2 (COX-2) enzyme is made only in response to injury or infection. It produces prostaglandins involved in inflammation and the immune response. Elevated levels of COX-2 in the body have been linked to cancer.
as §1, §2, §3

Compound | Percentage of inhibition or binding activity, ACAT (10 μM) [1] [%] | inhibition at 4 µM (human 5-LO) [%] | inhibition at 4 µM (Cyclooxygenase-2 (COX-2)) [%]
CC(C)=CCC/C(C)=C/CC/C(C)=C/CN1C(=O)c2cccc(O)c2Nc2c(O)cc(O)cc21 [Compound 1, 10-farnesyl-4,6,8-trihydroxy-5,10-dihydrodibenzo[b,e][1,4]diazepin-11-one] | 90 | 99 | 96
CC(C)=CCC/C(C)=C/CC/C(C)=C/CN1C(=O)c2cccc(O)c2N(C)c2c(O)cc(O)cc21 [Compound 2, 10-farnesyl-4,6,8-trihydroxy-5-methyl-5,10-dihydro-dibenzo[b,e][1,4]diazepin-11-one] | 51 | 93 | 92
CC(C)=CCC/C(C)=C/CC/C(C)=C/CN1C(=O)c2cccc(O)c2N(Cc2ccccc2)c2c(O)cc(O)cc21 [Compound 3, 5-benzyl-10-farnesyl-4,6,8-trihydroxy-5,10-dihydro-dibenzo[b,e][1,4]diazepin-11-one] | 63 | 72 | 76
COc1cccc2c1Nc1c(O)cc(O)cc1N(C/C=C(\C)CC/C=C(\C)CCC=C(C)C)C2=O [Compound 4, 10-farnesyl-6,8-dihydroxy-4-methoxy-5,10-dihydro-dibenzo[b,e][1,4]diazepin-11-one] | 65 | 98 | 78
COc1cc(O)cc2c1Nc1c(O)cccc1C(=O)N2C/C=C(\C)CC/C=C(\C)CCC=C(C)C [Compound 5, 10-farnesyl-4,8-dihydroxy-6-methoxy-5,10-dihydro-dibenzo[b,e][1,4]diazepin-11-one] | 60 | 98 | 63
COc1cc(OC)c2c(c1)N(C/C=C(\C)CC/C=C(\C)CCC=C(C)C)C(=O)c1cccc(O)c1N2 [Compound 6, 10-farnesyl-4-hydroxy-6,8-dimethoxy-5,10-dihydro-dibenzo[b,e][1,4]diazepin-11-one] | 54 | 71 | 45
COc1cccc2c1Nc1c(OC)cc(O)cc1N(CC=C(C)CCC=C(C)CCC=C(C)C)C2=O [Compound 7, 10-farnesyl-8-hydroxy-4,6-dimethoxy-5,10-dihydro-dibenzo[b,e][1,4]diazepin-11-one] | 95 | 63 | 26
COc1cc(OC)c2c(c1)N(CC=C(C)CCC=C(C)CCC=C(C)C)C(=O)c1cccc(OC)c1N2 [Compound 8, 10-farnesyl-4,6,8-trimethoxy-5,10-dihydro-dibenzo[b,e][1,4]diazepin-11-one] | 40 | -13 | 19
CC(=O)Oc1cc(OC(C)=O)c2c(c1)N(CC=C(C)CCC=C(C)CCC=C(C)C)C(=O)c1cccc(O)c1N2 [Compound 9, 6,8-diacetoxy-10-farnesyl-4-hydroxy-5,10-dihydro-dibenzo[b,e][1,4]diazepin-11-one] | 77 | 96 | 44
CC(=O)Oc1cccc2c1Nc1c(OC(C)=O)cc(O)cc1N(CC=C(C)CCC=C(C)CCC=C(C)C)C2=O [Compound 10, 4,6-diacetoxy-10-farnesyl-8-hydroxy-5,10-dihydro-dibenzo[b,e][1,4]diazepin-11-one] | 90 | 97 | 45
CC(=O)Oc1cc(O)c2c(c1)N(CC=C(C)CCC=C(C)CCC=C(C)C)C(=O)c1cccc(OC(C)=O)c1N2 [Compound 11, 4,8-diacetoxy-10-farnesyl-6-hydroxy-5,10-dihydro-dibenzo[b,e][1,4]diazepin-11-one] | 71 | 97 | 57
CC(=O)Oc1cc(OC(C)=O)c2c(c1)N(CC=C(C)CCC=C(C)CCC=C(C)C)C(=O)c1cccc(OC(C)=O)c1N2 [Compound 12, 4,6,8-triacetoxy-10-farnesyl-5,10-dihydro-dibenzo[b,e][1,4]diazepin-11-one] | 83 | 86 | 30
CC(C)CCCC(C)CCCC(C)CCN1C(=O)c2cccc(O)c2Nc2c(O)cc(O)cc21 (stereo not drawn) [Compound 46, 10-(3,7,11-trimethyldodecyl)-4,6,8-trihydroxy-5,10-dihydro-dibenzo[b,e][1,4]diazepin-11-one] | 8 | 65 | 95
